Measured values: BindingDB's records for doi:10.1016/j.bmcl.2004.03.096 (The University of Newcastle, 2004)

assay: Concentration required against dynamin-1 GTPase activity of sheep brain; increased dynamin I GTPase activity at 30 uM.

| Compound | IC50 [µM] |
| --- | --- |
| CCCC/C=C\C[C@@H](O)/C=C/C=C/C=C\[C@@H](O)CCCC(=O)O [(6Z,8E,10E,14Z)-(5S,12R)-5,12-Dihydroxy-nonadeca-6,8,10,14-tetraenoic acid] | > 300 |

assay: Concentration required against dynamin-1 GTPase activity of sheep brain.

| Compound | IC50 [µM] |
| --- | --- |
| CCCCCCCCCCCCC(=O)OCCN(C)C [Tridecanoic acid 2-dimethylamino-ethyl ester] | 23 |
| CCCCCCCCCCCC[N+](C)(C)CC [Dodecyl-ethyl-dimethyl-ammonium; bromide] | 10.1 |
| CCCCCCCCCCCCCC[N+](C)(C)CCC [Dimethyl-propyl-tetradecyl-ammonium; bromide] | 8.85 |
| CCCCCCCCCCCCCC[N+](CC)(CC)CC [Triethyl-tetradecyl-ammonium; bromide] | 8.45 |
| CCCCCCCCCCCCCCN [Tetradecylamine] | 20.2 |
| CCCCCCCCCCCCCC[N+](C)(C)CCCC [Butyl-dimethyl-tetradecyl-ammonium; bromide] | 8.02 |
| NCCCCCCCCCCCCN [1,12-diaminododecane] | 39.6 |
| CCCCCCCCCCCCCCCC[N+](CC)(CC)CC [Triethyl-hexadecyl-ammonium; bromide] | 9.62 |
| CCCC/C=C\C/C=C\C/C=C\C/C=C\CCCC(=O)NCCF [(5Z,8Z,11Z,14Z)-Nonadeca-5,8,11,14-tetraenoic acid (2-fluoro-ethyl)-amide] | > 300 |
| CCCCCCCCCCCCCC[N+](C)(C)CCO [(2-Hydroxy-ethyl)-dimethyl-tetradecyl-ammonium; bromide] | 9.36 |
| CCCCCCCCCCCCCCCC[P+](CCCC)(CCCC)CCCC [Tributyl-hexadecyl-phosphonium; bromide] | 10.2 |
| CCCCCCCCCCCCCCOC(CN)CN [2-Tetradecyloxy-propane-1,3-diammonium chloride] | 7.37 |
| CCCCCCCCCCCCC(=O)NCCN(C)C [Tridecanoic acid (2-dimethylamino-ethyl)-amide] | 8.85 |
| CCCCCCCCCCCCCCN | 14.9 |

assay: as above; remark: another data set of the same source

| Compound | IC50 [µM] |
| --- | --- |
| CCCCCCCCCCCCCCN | 8.74 |
